The values below come from ChEMBL document CHEMBL5338757, “Phototunable Cell Killing by Photochromic Diarylethene of Thiazoyl and Thienyl Derivatives” (J Med Chem, 2023).

Calls of active or inactive are those of the source. No cut-off for these calls is given here.

Assay [1] relates to HeLa. As to the kind of experiment: Phototoxicity against human HeLa cells assessed as cell death at 0.02 to 5 ppm preincubated for 18 hrs under dark condition followed by medium replacement and 436 nm blue light irradiation for 2 mins and measured after 2 hrs by microscopic analysis. It is filed as functional, cell-based. Conditions: dose 0.02-5 ppm, time 20.03 hrs.
Assay [2] deals with DNA. As to the kind of experiment: Binding affinity to DNA (unknown origin) at 15 uM with 436 nm blue light irradiation incubated for 24 hrs by fluorescence based assay. It is filed as nucleic-acid assay.
Assay [3] concerns DNA. As to the kind of experiment: Binding affinity to DNA (unknown origin) upto 25 uM incubated for 24 hrs in presence of ethidium bromide by […]. The format is nucleic-acid assay.
The test system of assay [4] is DNA. As to the kind of experiment: Binding affinity to DNA (unknown origin) assessed as redshift in absorption maxima at 15 uM with […] blue light irradiation incubated for 24 hrs by fluorescence based assay. It is filed as nucleic-acid assay.
In assay [5] the test system is HeLa. As to the kind of experiment: Phototoxicity against human HeLa cells assessed as cell death at 0.05 ppm incubated for 18 hrs followed by medium replacement and 436 nm blue light irradiation for 2 mins and measured after 2 hrs by microscopic analysis. It is filed as functional, cell-based.
In assay [6] the test system is HeLa. In words: Phototoxicity against human HeLa cells assessed as ATM kinase activation at 1 ppm with 365 and 436 nm light irradiation by Western blot analysis. It is filed as functional, cell-based. (In general: In western blotting, separated proteins are transferred to a membrane and probed.)
Assay [7] has as its system HeLa. In words: Phototoxicity against human HeLa cells assessed as BAK activation at 1 ppm with 365 and 436 nm light irradiation by Western blot analysis. The format is functional, cell-based.
In assay [8] the test system is DNA. As to the kind of experiment: Binding affinity to DNA (unknown origin) in aqueous media at 15 uM with > 546 nm blue light irradiation incubated for 24 hrs by CD spectra analysis. It is filed as nucleic-acid assay.
Assay [9] deals with HeLa. In words: Phototoxicity against human HeLa cells assessed as BAX activation at 1 ppm with 365 and 436 nm light irradiation by Western blot analysis. It is filed as functional, cell-based.
Assay [10] concerns HeLa. In words: Phototoxicity against human HeLa cells assessed as gamma-H2AX activation at 1 ppm with 365 and 436 nm light irradiation by Western blot analysis. It is filed as functional, cell-based.
The subject of assay [11] is DNA. As to the kind of experiment: Binding affinity to DNA (unknown origin) in aqueous media at 15 uM with 436 nm blue light irradiation incubated for 24 hrs by CD spectra analysis. It is filed as nucleic-acid assay.
The subject of assay [12] is HeLa. As to the kind of experiment: Phototoxicity against human HeLa cells assessed as cleaved caspase-3 activation at 1 ppm with 365 and 436 nm light irradiation by Western blot analysis. It is filed as functional, cell-based. The note with it: time 18.0 hrs.
For assay [13], the system named is HeLa. As to the kind of experiment: Phototoxicity against human HeLa cells assessed as cell death at 0.5 ppm preincubated for 1 day followed by UV irradiation for 20 sec. The format is functional, cell-based. Conditions: time 86420.0 sec.
Assay [14] deals with DNA. As to the kind of experiment: Binding affinity to DNA (unknown origin) in aqueous media at 15 uM at 436 nm blue light irradiation incubated for 24 hrs by fluorescence based assay. It is filed as nucleic-acid assay.
In assay [15] the test system is HeLa. As to the kind of experiment: Phototoxicity against human HeLa cells assessed as cell death at 5 ppm incubated for 18 hrs followed by medium replacement and 436 nm blue light irradiation for 2 mins and measured after 2 hrs by microscopic analysis. The format is functional, cell-based. The note with it: time 20.03 hrs.
In assay [16] the test system is HeLa. In words: Phototoxicity in human HeLa cells assessed as cell damage at 0.2 ppm irradiated with 546 nm green light. The format is functional, cell-based.
The test system of assay [17] is HeLa. As to the kind of experiment: Phototoxicity against human HeLa cells assessed as ATM kinase activation at 0.1 ppm with 436 nm blue light irradiation by Western blot analysis. The format is functional, cell-based. Conditions: time 20.03 hrs.
Assay [18] has as its system HeLa. In words: Phototoxicity against human HeLa cells assessed as caspase-3 activation at 0.1 ppm with 436 nm blue light irradiation by Western blot analysis. It is filed as functional, cell-based. Conditions: time 20.03 hrs.
Assay [19] deals with HeLa. In words: Phototoxicity against human HeLa cells assessed as CHK2 activation at 0.1 ppm with 436 nm blue light irradiation by Western blot analysis. It is filed as functional, cell-based. Conditions: time 20.03 hrs.
Assay [20] deals with HeLa. As to the kind of experiment: Phototoxicity against human HeLa cells assessed as cell shrinkage at 1 nM preincubated for 18 hrs under dark condition followed by medium replacement and 436 nm blue light irradiation for 2 mins and measured after 2 hrs by microscopic analysis. Conditions: time 20.03 hrs. It is filed as functional, cell-based.
The test system of assay [21] is HeLa. As to the kind of experiment: Phototoxicity against human HeLa cells assessed as cell rounding at 1 nM preincubated for 18 hrs under dark condition followed by medium replacement and 436 nm blue light irradiation for 2 mins and measured after 2 hrs by microscopic analysis. The note with it: time 20.03 hrs. The format is functional, cell-based.
Assay [22] concerns HeLa. As to the kind of experiment: Phototoxicity against human HeLa cells assessed as activation of BAX multiplication at 0.1 ppm with 436 nm blue light irradiation by Western blot analysis. It is filed as functional, cell-based.
Assay [23] has as its system HeLa. In words: Phototoxicity against human HeLa cells assessed as CHK1 activation at 0.1 ppm with 436 nm blue light irradiation by Western blot analysis. The format is functional, cell-based. Conditions: time 20.03 hrs.
Assay [24] relates to HeLa. As to the kind of experiment: Phototoxicity against human HeLa cells assessed as BAX activation at 0.1 ppm with 436 nm blue light irradiation by Western blot analysis. The format is functional, cell-based. Conditions: time 20.03 hrs.
Assay [25] has as its system HeLa. In words: Phototoxicity against human HeLa cells assessed as gamma-H2AX activation at 0.1 ppm with 436 nm blue light irradiation by Western blot analysis. It is filed as functional, cell-based. The note with it: time 20.03 hrs.
In assay [26] the test system is HeLa. In words: Phototoxicity in human HeLa cells assessed as cell damage at 0.2 ppm pre-irradiated with 546 nm green light followed by 436 nm blue light irradiation. The format is functional, cell-based.
Assay [27] deals with HeLa. As to the kind of experiment: Phototoxicity against human HeLa cells assessed as BAK activation at 0.1 ppm with 436 nm blue light irradiation by Western blot analysis. The format is functional, cell-based. Conditions: time 20.03 hrs.

As to `Cc1sc(-c2ccccc2)cc1C1=C(c2cc(-c3ccccc3)sc2C)C(F)(F)C(F)(F)C1(F)F`, the outcome in the assay with HeLa [1] and with DNA [4] was inactive. Further, in the assay with DNA [2], the result was Active. Further, the KSV in the assay with DNA [3] is 1.6 10^3/M.

In the case of `CC12C=C(c3ccccc3)SC1=C1C(=C3SC(c4ccccc4)=CC32C)C(F)(F)C(F)(F)C1(F)F` (stereo not given), the result in the assay with HeLa [5] was Active.

Regarding `Cc1sc(-c2ccccc2)nc1C1=C(c2nc(-c3ccccc3)sc2C)C(F)(F)C(F)(F)C1(F)F`, the result with HeLa [6], in the assay with HeLa [7], in the assay with HeLa [1], with DNA [8], in the assay on HeLa [9] and in the assay with HeLa [10] was inactive. In addition, the result in the assay with HeLa [12] and in the assay with HeLa [13] was inactive. Besides, the result in the assay with DNA [2], in the assay on DNA [11], in the assay on DNA [4] and in the assay on DNA [14] was Active. Further, the KSV with DNA [3] was 1.6 10^3/M.

For the molecule `C[C@]12SC(c3ccccc3)=CC1=C1C(=C3N=C(c4ccccc4)S[C@@]32C)C(F)(F)C(F)(F)C1(F)F`, the outcome in the assay with HeLa [1], in the assay on DNA [2] and in the assay on DNA [4] was Active. Also, the KSV in the assay with DNA [3] was 27 10^3/M.

Regarding `CC12N=C(c3ccccc3)SC1=C1C(=C3SC(c4ccccc4)=NC32C)C(F)(F)C(F)(F)C1(F)F` (stereo not given), in the assay on HeLa [5], the result was Active.

As to `Cc1sc(-c2ccccc2)cc1C1=C(c2nc(-c3ccccc3)sc2C)C(F)(F)C(F)(F)C1(F)F`, the outcome in the assay with DNA [2] and with DNA [4] was Active. Also, the KSV in the assay on DNA [3] is 1.6 10^3/M.

As for `CC12C=C(c3ccccc3)SC1=C1C(=C3SC(c4ccccc4)=NC32C)C(F)(F)C(F)(F)C1(F)F` (stereo not given), the outcome with HeLa [5] was Active.

With `CC12SC(c3ccccc3)=CC1=C1C(=C3C=C(c4ccccc4)SC32C)C(F)(F)C(F)(F)C1(F)F` (stereo not given), the result in the assay with HeLa [1] and with DNA [4] was inactive. Moreover, in the assay with DNA [2], the outcome was Active. In the assay with DNA [3], the KSV was 27 10^3/M.

With `Cc1cc(-c2ccccc2)sc1C1=C(c2sc(-c3ccccc3)cc2C)C(F)(F)C(F)(F)C1(F)F`, the outcome in the assay with HeLa [15] was inactive.

Take `Cc1nc(-c2ccccc2)sc1C1=C(c2sc(-c3ccccc3)nc2C)C(F)(F)C(F)(F)C1(F)F`: the result in the assay on HeLa [15] was inactive.

As for `CC12SC(c3ccccc3)=NC1=C1C(=C3N=C(c4ccccc4)SC32C)C(F)(F)C(F)(F)C1(F)F` (stereo not given), the result in the assay with HeLa [16], in the assay with HeLa [17], in the assay on HeLa [18], in the assay with HeLa [19], in the assay on HeLa [20] and in the assay on HeLa [21] was Active. The result in the assay with HeLa [1], in the assay on HeLa [22], in the assay with DNA [2], in the assay on HeLa [23], in the assay with HeLa [24] and in the assay on HeLa [25] was Active. Besides, the result in the assay with HeLa [26], with DNA [4] and in the assay on HeLa [27] was Active. Further, the KSV in the assay on DNA [3] was 27 10^3/M.

As for `Cc1cc(-c2ccccc2)sc1C1=C(c2sc(-c3ccccc3)nc2C)C(F)(F)C(F)(F)C1(F)F`, in the assay with HeLa [15], the outcome was inactive.
